Test results taken from patent publication US20220090217A1, “BIOMARKERS AND USES THEREOF IN THE TREATMENT OF CHRONIC HBV INFECTION” (Janssen Sciences Ireland Unlimited Company, priority 2020, published 2022).

Test system: chronic hepatitis B (CHB) patients
Assay: Onset of clinical relapse after stop of NA treatment (Cox proportional hazard regression)
Type: in vivo, human
Settings: entecavir compared to tenofovir; among the 110 clinical relapsers
From the text: Patients and Study Design: In this multi-center prospective study in Taiwan, 242 CHB patients were enrolled while in their last half year of a minimum 3-year treatment regimen with direct antivirals. Of them, 47 were excluded due to protocol violation, screening failure, lost to follow-up, withdrawal by the subject, use of immune related therapy, or on-treatment clinical relapse. An additional 14 were excluded as the analysis required patients to be hepatitis B e-antigen (HBeAg) negative, hepatitis virus (HBV) DNA <60 IU/mL, and alanine transaminase (ALT) <80 U/L at the last on-treatment visit, leaving […] patients eligible for analysis. […] Cumulative incidence of virological and clinical relapse after stop of treatment was assessed by Kaplan-Meier curves (FIGS. 1A and 1B). […] Statistical Analysis of HLA Data: The association between the HLA alleles (at two and four digits resolution for each locus) and diversity (genetic homozygosity and HED score, independently) and onset of relapse was assessed using a Cox model (Harrell et al., JAMA: The Journal of the American Medical Association, 1982, 247: 2543) including HBsAg level at the last visit on treatment (high (≥100 IU/mL) vs. low (<100 IU/mL)) and the antiviral treatment at enrolment (tenofovir vs. entecavir) as main effects. […]

In the case of `C=C1[C@H](CO)[C@@H](O)C[C@@H]1n1cnc2c(=O)[nH]c(N)nc21` [entecavir], the “onset of clinical relapse later after stopping treatment, on average” value is reported as 100 days.
